{"source": "patent US12060333B2", "about": "(Hoffmann-La Roche Inc., priority 2021, dated 2024)"}
{"molecular_target": "SARS-CoV-2 3CLpro (Severe acute respiratory syndrome coronavirus 2, UniProt P0DTD1)", "test": "biochemical", "conditions": "IC50 (μM), SARS-CoV-2 3CLPro assay", "units": {"IC50": "µM"}}
{"molecule": "CC(C)C[C@H](NC(=O)/C=C/c1ccccc1)C(=O)NN(CCC(N)=O)C(=O)[C@H](F)Cl", "note": "(single isomer, unassigned) [Example 86-A]", "IC50": 0.75}
{"molecule": "CC(C)C[C@H](NC(=O)/C=C/c1ccccc1)C(=O)NN(CCC(N)=O)C(=O)[C@@H](F)Cl", "note": "(single isomer, unassigned) [Example 86-B]", "IC50": 0.023}
{"molecule": "NC(=O)CCN(NC(=O)[C@H](CC1CCCCC1)NC(=O)OCc1ccccc1)C(=O)C(F)Cl", "note": "(stereo partly drawn) [Example 16, Benzyl N-[(1S)-2-[2-(3-amino-3-oxo-propyl)-2-(2-chloro-2-fluoro-acetyl)hydrazino]-1-(cyclohexylmethyl)-2-axo-ethyl]carbamate]", "IC50": 0.009}
{"molecule": "CC(C)C[C@H](NC(=O)OCc1ccccc1)C(=O)NN(CC1CCCNC1=O)C(=O)CCl", "note": "(stereo partly drawn) [Example 20, Benzyl N-[(1S)-1-[[(2-chloroacetyl)-[(2-oxo-3-piperidyl)methyl]amino]carbamoyl]-3-methyl-butyl]carbamate]", "IC50": 0.0046}
{"molecule": "COc1cccc2[nH]c(C(=O)N[C@@H](CC(C)C)C(=O)NN(CCC(N)=O)C(=O)CCl)cc12", "note": "[Example 27, 4-Methoxy-N-[(1S)-1-[[(3-amino-3-oxo-propyl)-(2-chloroacetyl)amino]carbamoyl]-3-methyl-butyl]-1H-indole-2-carboxamide]", "IC50": 0.006}
{"molecule": "Cc1cc(C(=O)N[C@@H](CC(C)C)C(=O)NN(CCC(N)=O)C(=O)CCl)no1", "note": "[Example 29]", "IC50": 0.034}
{"molecule": "COc1cccc2[nH]c(C(=O)N[C@@H](CC(C)C)C(=O)NN(CCC(N)=O)C(=O)CF)cc12", "note": "[Example 30, N-[(1S)-1-[[(3-Amino-3-axo-propyl)-(2-fluoroacetyl)amino]carbamoyl]-3-methyl-butyl]-4-methoxy-1H-indole-2-carboxamide]", "IC50": 0.16}
{"molecule": "CC(C)C[C@H](NC(=O)c1cc2ccccc2[nH]1)C(=O)NN(CCC(N)=O)C(=O)CF", "note": "[Example 31, N-[(1S)-1-[[(3-Amino-3-axo-propyl)-(2-fluoroacetyl)amino]carbamoyl]-3-methyl-butyl]-1H-indole-2-carboxamide]", "IC50": 0.65}
{"molecule": "COc1cccc2[nH]c(C(=O)N[C@@H](CC3CCCCC3)C(=O)NN(CCC(N)=O)C(=O)CCl)cc12", "note": "[Example 32, N-[(1S)-2-[2-(3-Amino-3-axo-propyl)-2-(2-chloroacetyl)hydrazino]-1-(cyclohexylmethyl)-2-axo-ethyl]-4-methoxy-1H-indole-2-carboxamide]", "IC50": 0.002}
{"molecule": "CC(C)C[C@H](NC(=O)c1cc2ccccc2[nH]1)C(=O)NN(CC1CCNC1=O)C(=O)CF", "note": "(stereo partly drawn) [Example 38, N-[(1S)-1-[[(2-fluoroacetyl)-[(2-oxo-pyrrolidin-3-yl)methyl]amino]carbamoyl]-3-methyl-butyl]-1H-indole-2-carboxamide]", "IC50": 0.29}
{"molecular_target": "SARS-CoV-2 3CLpro (Severe acute respiratory syndrome coronavirus 2, UniProt P0DTD1)", "test": "biochemical", "conditions": "read-out: IC50 (μM), SARS-CoV-2 3CLPro assay", "units": {"IC50": "µM"}}
{"molecule": "NC(=O)CCN(NC(=O)CNC(=O)OCc1ccccc1)C(=O)CCl", "note": "[Example 1, Benzyl N-[2-[2-(3-amino-3-oxo-propyl)-2-(2-chloroacetyl)hydrazino]-2-axo-ethyl]carbamate]", "IC50": 4.59}
{"molecule": "CC(C)C[C@H](NC(=O)OCc1ccccc1)C(=O)NN(CCC(N)=O)C(=O)CCl", "note": "[Example 2, Benzyl N-[(1S)-1-[[(3-amino-3-oxo-propyl)-(2-chloroacetyl)amino]carbamoyl]-3-methyl-butyl]carbamate]", "IC50": 0.017}
{"molecule": "CC(C)C[C@H](NC(=O)OCc1ccccc1)C(=O)NN(CCC(N)=O)C(=O)C(Cl)c1ccccc1", "note": "(stereo partly drawn) [Example 3, Benzyl N-[(1S)-1-[[(3-amino-3-oxo-propyl)-(2-chloro-2-phenyl-acetyl)amino]carbamoyl]-3-methyl-butyl]carbamat]", "IC50": 0.89}
{"molecule": "CC(C)C[C@H](NC(=O)OCc1ccccc1)C(=O)NN(CCC(N)=O)C(=O)C(C)Cl", "note": "(stereo partly drawn) [Example 4, Benzyl N-[(1S)-1-[[(3-amino-3-oxo-propyl)-(2-chloropropanoyl)amino]carbamoyl]-3-methyl-butyl]carbamate]", "IC50": 0.33}
{"molecule": "CCC(Cl)C(=O)N(CCC(N)=O)NC(=O)[C@H](CC(C)C)NC(=O)OCc1ccccc1", "note": "(stereo partly drawn) [Example 5, Benzyl N-[(1S)-1-[[(3-amino-3-oxo-propyl)-(2-chlorobutanoyl)amino]carbamoyl]-3-methyl-butyl]carbamate]", "IC50": 1.76}
{"molecule": "CC(C)C[C@H](NC(=O)OCc1ccccc1)C(=O)NN(CCC(N)=O)C(=O)CBr", "note": "[Example 7, Benzyl N-[(1S)-1-[[(3-amino-3-oxo-propyl)-(2-bromoacetyl)amino]carbamoyl]-3-methyl-butyl]carbamate]", "IC50": 0.54}
{"molecule": "NC(=O)CCN(NC(=O)[C@H](CC1CCCCC1)NC(=O)OCc1ccccc1)C(=O)CCl", "note": "[Example 8, Benzyl N-[(1S)-2-[2-(3-amino-3-oxo-propyl)-2-(2-chloroacetyl)hydrazino]-1-(cyclohexylmethyl)-2-axo-ethyl]carbamate]", "IC50": 0.008}
{"molecule": "NC(=O)CCN(NC(=O)[C@H](CC1CCCC1)NC(=O)OCc1ccccc1)C(=O)CCl", "note": "[Example 10, Benzyl N-[(1S)-2-[2-(3-amino-3-oxo-propyl)-2-(2-chloroacetyl)hydrazino]-1-(cyclopentylmethyl)-2-axo-ethyl]carbamate]", "IC50": 0.006}
{"molecule": "NC(=O)CCN(NC(=O)[C@H](CC1CC1)NC(=O)OCc1ccccc1)C(=O)CCl", "note": "[Example 11, Benzyl N-[(1S)-2-[2-(3-amino-3-oxo-propyl)-2-(2-chloroacetyl)hydrazino]-1-(cyclopropylmethyl)-2-axo-ethyl]carbamate]", "IC50": 0.023}
{"molecule": "NC(=O)CCN(NC(=O)[C@H](CC1CCCCC1)NC(=O)OCc1ccccc1)C(=O)CF", "note": "[Example 15, Benzyl N-[(1S)-2-[2-(3-amino-3-oxo-propyl)-2-(2-fluoroacetyl)hydrazino]-1-(cyclohexylmethyl)-2-axo-ethyl]carbamate]", "IC50": 1.2}
{"molecule": "CC(C)C[C@H](NC(=O)OCc1ccccc1)C(=O)NN(CCC(N)=O)C(=O)C(F)Cl", "note": "(stereo partly drawn) [Example 17, Benzyl N-[(1S)-1-[[(3-amino-3-oxo-propyl)-(2-chloro-2-fluoro-acetyl)amino]carbamoyl]-3-methyl-butyl]carbamate]", "IC50": 0.09}
{"molecule": "CC(C)C[C@H](NC(=O)OCc1ccccc1)C(=O)NN(CC1CCNC1=O)C(=O)CCl", "note": "(stereo partly drawn) [Example 18, Benzyl N-[(1S)-1-[[(2-chloroacetyl)-[(2-oxo-pyrrolidin-3-yl)methyl]amino]carbamoyl]-3-methyl-butyl]carbamate]", "IC50": 0.017}
{"molecule": "CCCN(NC(=O)[C@H](CC(C)C)NC(=O)OCc1ccccc1)C(=O)CCl", "note": "[Example 21, Benzyl N-[(1S)-1-[[(2-chloroacetyl)-propyl-amino]carbamoyl]-3-methyl-butyl]carbamate]", "IC50": 0.39}
{"molecule": "CC(C)C[C@H](NC(=O)OCc1ccccc1)C(=O)NN(Cc1cc[nH]n1)C(=O)CCl", "note": "[Example 23, Benzyl N-[(1S)-1-[[(2-chloroacetyl)-(1H-pyrazol-3-ylmethyl)amino]carbamoyl]-3-methyl-butyl]carbamate]", "IC50": 0.034}
{"molecule": "CC(C)C[C@H](NC(=O)OCc1ccccc1)C(=O)NN(Cc1c[nH]cn1)C(=O)CCl", "note": "[Example 24, Benzyl N-[(1S)-1-[[(2-chloroacetyl)-(1H-imidazol-4-ylmethyl)amino]carbamoyl]-3-methyl-butyl]carbamate]", "IC50": 0.087}
{"molecule": "CC(C)C[C@H](NC(=O)OC(C)(C)C)C(=O)NN(CCC(N)=O)C(=O)CCl", "note": "[Example 26, tert-Butyl N-[(1S)-1-[[(3-amino-3-oxo-propyl)-(2-chloroacetyl)amino]carbamoyl]-3-methyl-butyl]carbamate]", "IC50": 0.67}
{"molecule": "NC(=O)CCN(NC(=O)[C@H](CC1CCCCC1)NC(=O)/C=C/c1ccc(Cl)cc1F)C(=O)CCl", "note": "[Example 33, 3-[(2-Chloroacetyl)-[[(2S)-2-[[(E)-3-(4-chloro-2-fluoro-phenyl)prop-2-enoyl]amino]-3-cyclohexyl-propanoyl]amino]amino]propanamide]", "IC50": 0.002}
{"molecule": "CC(C)C[C@H](NC(=O)/C=C/c1ccc(Cl)cc1F)C(=O)NN(CCC(N)=O)C(=O)CCl", "note": "[Example 34, 3-[(2-Chloroacetyl)-[[(2S)-2-[[(E)-3-(4-chloro-2-fluoro-phenyl)prop-2-enoyl]amino]-4-methyl-pentanoyl]amino]amino]propanamide]", "IC50": 0.005}
{"molecule": "NC(=O)CCN(NC(=O)[C@H](CC1CCCCC1)NC(=O)c1cc2ccccc2[nH]1)C(=O)CCl", "note": "[Example 35, N-[(1S)-2-[2-(3-Amino-3-axo-propyl)-2-(2-chloroacetyl)hydrazino]-1-(cyclohexylmethyl)-2-axo-ethyl]-1H-indole-2-carboxamide]", "IC50": 0.002}
{"molecule": "NC(=O)CCN(NC(=O)[C@H](CC1CCCCC1)NC(=O)c1cc2ccccc2[nH]1)C(=O)CF", "note": "[Example 36, N-[(1S)-2-[2-(3-Amino-3-axo-propyl)-2-(2-fluoroacetyl)hydrazino]-1-(cyclohexylmethyl)-2-axo-ethyl]-1H-indole-2-carboxamide]", "IC50": 0.14}
{"molecule": "COc1cccc2[nH]c(C(=O)N[C@@H](CC3CCCCC3)C(=O)NN(CCC(N)=O)C(=O)CF)cc12", "note": "[Example 37, N-[(1S)-2-[2-(3-Amino-3-axo-propyl)-2-(2-fluoroacetyl)hydrazino]-1-(cyclohexylmethyl)-2-axo-ethyl]-4-methoxy-1H-indole-2-carboxamide]", "IC50": 0.038}
{"molecule": "CN(C(=O)c1cc2ccccc2[nH]1)[C@@H](CC1CCCCC1)C(=O)NN(CCC(N)=O)C(=O)CCl", "note": "[Example 39, N-[(1S)-2-[2-(3-Amino-3-axo-propyl)-2-(2-chloroacetyl)hydrazino]-1-(cyclohexylmethyl)-2-axo-ethyl]-N-methyl-1H-indole-2-carboxamide]", "IC50": 0.002}
{"molecule": "CC(C)C[C@@H](C(=O)NN(CCC(N)=O)C(=O)CCl)N(C)C(=O)c1cc2ccccc2[nH]1", "note": "[Example 40, N-[(1S)-1-[[(3-Amino-3-axo-propyl)-(2-chloroacetyl)amino]carbamoyl]-3-methyl-butyl]-N-methyl-1H-indole-2-carboxamide]", "IC50": 0.007}
{"molecule": "CC(C)C[C@H](NC(=O)c1nc2ccccc2[nH]1)C(=O)NN(CCC(N)=O)C(=O)CCl", "note": "[Example 42, N-[(1S)-1-[[(3-Amino-3-axo-propyl)-(2-chloroacetyl)amino]carbamoyl]-3-methyl-butyl]-1H-benzimidazole-2-carboxamide]", "IC50": 0.005}
{"molecule": "CC(C)C[C@H](NC(=O)c1ccon1)C(=O)NN(CCC(N)=O)C(=O)CCl", "note": "[Example 43, N-[(1S)-1-[[(3-Amino-3-oxo-propyl)-(2-chloroacetyl)amino]carbamoyl]-3-methyl-butyl]isoxazole-3-carboxamide]", "IC50": 0.036}
